How the values were obtained:
Type in all cases: physicochemical
[1] = RP-TLC lipophilicity, silica gel C18, methanol-water; details: for C 0: RP-TLC silica gel C18, C0 = −RM^0/b; for PC1: RP-TLC silica gel C18, first principal component of RM values, contains 86.92% of information; for mRM: RP-TLC silica gel C18, mean value of RM; for R M ^0: RP-TLC silica gel C18, methanol-water 40 to 70% (v/v), intercept of Soczewiński–Wachtmeister equation; for b: RP-TLC silica gel C18, slope of Soczewiński–Wachtmeister equation
Procedure: (§1) The ready-to-use TLC glass plates covered by octadecyl(C18)- and octyl(C8)-modified TLC silica layers were purchased from Merck (Darmstadt, Germany). Stock solutions (5 µL) of the analytes were spotted manually on the plates with the use of a micropipette from Brand (Wertheim, Germany). The mobile phases were prepared by mixing appropriate volumes of pure organic solvents and water (in step gradient by 10% (v/v)), in the following proportions: (a) methanol–water ranging from 30 to 70% (v/v), in the case of C8-bonded silica gel stationary phase; and (b) methanol–water ranging from 40 to 70% (v/v), in the case of C18-bonded silica gel stationary phase.
(§2) Before analysis, the chromatographic chamber (Twin Trough Chambers from CAMAG Philadelphia, USA) was saturated for 20 min. All TLC experiments were performed at room temperature (22 ± 2 °C). Chromatograms were developed using the ascending technique to a distance of 8 cm. The investigated substances were visualized under UV light at λ = 366 nm by CAMAG UV Lamp 4 and the Viewing Box 4 (Philadelphia, USA). […] The obtained retardation factors (RF) were collected in the Supplementary data sheets. The retention parameter, RM, was calculated for each compound according to the Bate-Smith and Westall formula: (7) RM=log(1/RF−1) and listed in Table S2. Next, the Soczewiński–Wachtmeister’s equation: RM = RM^0 + bC(8) was used in order to determine the basic lipophilic RP-TLC parameter RM^0 as well as commonly used hydrophobic constants m. Soczewiński–Wachtmeister’s equation presented a linear relationship between concentration of the organic solvent in mobile phase (C) and RM value. Moreover, mean value of RM was used for lipophilicity assessments.
(§3) Furthermore, C0 RP-TLC lipophilicity parameter, introduced by Bieganowska, has been calculated according to the formula:(9) C0=−RM^0/b.
(§4) The C0 parameter corresponds to the parameter φ0, previously proposed for the HPLC. This parameter relates to the concentration of the organic component in the mobile phase for which the distribution of the analyzed substance between the mobile and stationary phase is equal (1:1).
(§5) Also, the principal component analysis (PCA) was applied in order to extract information regarding the lipophilicity of solutes and formulate them as the first principal component (PC1). Calculation data matrixes included RM values of solutes for each modifier concentration in the mobile phase.

[2] = RP-TLC lipophilicity, silica gel C8, methanol-water; details: for C 0: RP-TLC silica gel C8, C0 = −RM^0/b; for PC1: RP-TLC silica gel C8, first principal component of RM values, contains 83.57% of information; for mRM: RP-TLC silica gel C8, mean value of RM; for R M ^0: RP-TLC silica gel C8, methanol-water 30 to 70% (v/v), intercept of Soczewiński–Wachtmeister equation; for b: RP-TLC silica gel C8, slope of Soczewiński–Wachtmeister equation
Procedure: as §1, §2, §3, §4, §5

[3] = MEKC lipophilicity (SDS micelles, pH 7.4); details: 50 mM SDS, HEPES/TRIS buffer pH 7.4, 25 °C
Procedure: All MEKC experiments were carried out with a P/ACE MDQ plus system (Sciex, Framingham, MA, USA) equipped with photodiode array detector (PDA) and controlled by 32 Karat software (version 10.2). The uncoated fused silica capillaries (50 µm i.d., Polymicro Technologies, West Yorkshire, UK) of 60 cm total length and 50.2 cm effective length were used. Prior to analysis, the capillary was rinsed with 0.1 M NaOH for 30 min, ultrapure water for 10 min, and background electrolyte (BGE) for 30 min. After each analysis, the capillary was conditioned with BGE for 2 min. The applied pressure for all rinsing operations was 345 kPa. The analytes were dissolved in BGE at concentration of 100 µg/mL with addition of quinine (micelles marker). As electroosmotic flow (EOF) marker, DMSO was used. The samples were hydrodynamically injected at 35 kPa for 5 s. The separations were performed by applying voltage of 20 kV with positive polarity and constant temperatures at 25 ± 0.1 °C. The BGE consisted of aqueous solution of 50 mM SDS and 120 mM HEPES /100 mM TRIS buffer of pH 7.4. The BGE was prepared each working day by dilution of stock solution. Detection was carried out at 200 and 280 nm with 8 Hz probing frequency. The logarithm of retention factor logk was calculated according to the equation introduced by Terabe and co-workers:(10) logkMEKC=log(tR−tEOF/tEOF(1−tR/tMC)) The established logk parameters are summarized in Table 2.

SMILES	C 0 [1]	PC1 [1]	mRM [1]	R M ^0 [1]	b [1]	C 0 [2]	PC1 [2]	mRM [2]	R M ^0 [2]	b [2]	logk [3]
CCn1cc(C(=O)O)c(=O)c2cc(F)c(N3CC[N+]4(CC3)CN3C(=N4)C(C(=O)O)=Cc4ccccc43)cc21.[Cl-] [Compound 1]	1.21	0.72	0.96	1.65	−1.36	1.04	−2.23	1.03	1.99	−1.92	−0.104
COc1c(N2CC[N+]3(CN4C(=N3)C(C(=O)O)=Cc3ccccc34)C(C)C2)c(F)cc2c(=O)c(C(=O)O)cn(C3CC3)c12.[Cl-] (stereo not drawn) [Compound 2]	0.84	0.81	0.95	2.78	−3.31	0.89	−2.22	1.01	2.31	−2.61	−0.125
CC1CN(c2c(F)c(N)c3c(=O)c(C(=O)O)cn(C4CC4)c3c2F)CC(C)[N+]12CN1C(=N2)C(C(=O)O)=Cc2ccccc21.[Cl-] (stereo not drawn) [Compound 3]	0.88	0.34	1.02	2.75	−3.13	0.86	−3.48	1.15	2.74	−3.17	−0.070
CC1=CC(C)=C(C(=O)O)C2=N[N+]3(CCN(c4cc5c(cc4F)c(=O)c(C(=O)O)cn5C4CC4)CC3)CN12.[Cl-] [Compound 4]	0.94	2.36	0.72	1.74	−1.85	0.94	−0.58	0.84	1.79	−1.90	−0.321
CCn1cc(C(=O)O)c(=O)c2cc(F)c(N3CC[N+]4(CN5C(=N4)C(C(=O)O)=Cc4ccccc45)C(C)C3)c(F)c21.[Cl-] (stereo not drawn) [Compound 5]	0.93	0.88	0.94	2.29	−2.45	1.04	−1.69	0.98	1.90	−1.83	−0.265
CCn1cc(C(=O)O)c(=O)c2cnc(N3CC[N+]4(CC3)CN3C(=N4)C(C(=O)O)=Cc4ccccc43)nc21.[Cl-] [Compound 6]	1.23	0.53	0.98	1.78	−1.45	2.35	−1.73	1.04	1.32	−0.56	–
CCn1cc(C(=O)O)c(=O)c2cc(F)c(N3CC[N+]4(CC3)CN3C(=N4)C(C(=O)O)=Cc4ccccc43)nc21.[Cl-] [Compound 7]	1.17	0.48	0.99	1.87	−1.60	1.23	−2.01	1.05	1.76	−1.43	−0.239
O=C(O)C1=Cc2ccccc2N2C[N+]3(CCN(c4cc5c(cc4F)c(=O)c(C(=O)O)cn5C4CC4)CC3)N=C12.[Cl-] [Compound 8]	1.07	1.18	0.89	1.83	−1.71	1.09	−1.26	0.93	1.71	−1.56	−0.153
CCn1cc(C(=O)O)c(=O)c2cc(F)c(N3CC[N+]4(CN5C(C)=CC(C)=C(C(=O)O)C5=N4)C(C)C3)c(F)c21.[Cl-] (stereo not drawn) [Compound 9]	0.98	1.75	0.81	1.86	−1.91	0.97	−0.11	0.79	1.62	−1.66	−0.479
CCn1cc(C(=O)O)c(=O)c2cnc(N3CC[N+]4(CC3)CN3C(C)=CC(C)=C(C(=O)O)C3=N4)nc21.[Cl-] [Compound 10]	1.22	2.53	0.70	1.27	−1.04	1.28	0.79	0.71	1.16	−0.91	–
CCn1cc(C(=O)O)c(=O)c2cc(F)c(N3CC[N+]4(CC3)CN3C(C)=CC(C)=C(C(=O)O)C3=N4)nc21.[Cl-] [Compound 11]	1.08	1.51	0.84	1.72	−1.59	1.06	−0.54	0.84	1.59	−1.50	−0.398
CCn1cc(C(=O)O)c(=O)c2cc(F)c(N3CC[N+]4(CC3)CN3C(C)=CC(C)=C(C(=O)O)C3=N4)cc21.[Cl-] [Compound 12]	1.00	1.97	0.78	1.75	−1.75	1.00	−0.38	0.82	1.63	−1.63	−0.272
COc1c(N2CC[N+]3(CN4C(C)=CC(C)=C(C(=O)O)C4=N3)C(C)C2)c(F)cc2c(=O)c(C(=O)O)cn(C3CC3)c12.[Cl-] (stereo not drawn) [Compound 13]	0.88	1.74	0.82	2.18	−2.47	0.92	−0.64	0.83	1.82	−1.97	−0.408
CC1=CC(C)=C(C(=O)O)C2=N[N+]3(CN12)C(C)CN(c1c(F)c(N)c2c(=O)c(C(=O)O)cn(C4CC4)c2c1F)CC3C.[Cl-] (stereo not drawn) [Compound 14]	0.86	1.32	0.88	2.45	−2.84	0.86	−1.79	0.96	2.29	−2.66	−0.261
O=C(O)c1cn(C2CC2)c2cc(N3CCNCC3)c(F)cc2c1=O [Compound 22, ciprofloxacin, reference compound]	1.30	−3.88	1.62	2.79	−2.15	1.61	−5.04	1.41	2.04	−1.27	–

From publication PMC6862250, “Lipophilicity Determination of Quaternary (Fluoro)Quinolones by Chromatographic and Theoretical Approaches” (International Journal of Molecular Sciences, 2019)
